Test results published in patent US20020049162A1, “Methods for inhibiting smooth muscle cell proliferation” (priority 2000, published 2002).
“Also recorded” adds a separate entry of the source. Square brackets hold non-standard residues; d marks the D form. Ends that are not written are not given here. Phe(4-NH2) = Nc1ccc(C[C@H](N)C(=O)O)cc1

Assays:
[1] = test system: Human coronary artery smooth muscle cells; assay: Inhibition of human smooth muscle cell proliferation (cell counts, growth rate vs wells without peptide); type: cell-based; details: for % Control Proliferation Day 1 vs Day 4 / % Control Proliferation Day 1 vs Day 7: percentage of the control growth rate, values below 100 = inhibition, peptides 0.1-10 μg/ml, concentration not given; for Effect on proliferation of human smooth muscle cells (in words): compared with wells that did not contain peptide
[2] = test system: smooth muscle cell growth after vascular injury; details: Strawn et al., Hypertension 33:207-211 (1999); cited from earlier work
smooth muscle cell = details: Strawn et al., Hypertension 33:207-211 (1999); cited from earlier work
AT2 receptor = details: cited from earlier work
[3] = Unspecified earlier test of effectiveness of AII fragments; details: test not described

A(1-7): AII residues 1-7, SEQ ID NO:4 (DRVYIHP) [reference compound]
% Control Proliferation Day 1 vs Day 4 [1]: 73.3%
% Control Proliferation Day 1 vs Day 7 [1]: 63.3%
Smooth muscle cell growth after vascular injury (in words) [2]: reduce smooth muscle cell growth after vascular injury
Smooth muscle cell proliferation (in words) (smooth muscle cell): inhibit smooth muscle cell proliferation

Arg—Val—Tyr—Ile—His—Pro (RVYIHP) [A(2-7)]
Effect on proliferation of human smooth muscle cells (in words) [1]: inhibited smooth muscle cell proliferation
% Control Proliferation Day 1 vs Day 4 [1]: 82.4%
% Control Proliferation Day 1 vs Day 7 [1]: 64.8%

Asp—Arg—Val—Tyr—Ile (DRVYI) [A(1-5)]
% Control Proliferation Day 1 vs Day 4 [1]: 85.9%
% Control Proliferation Day 1 vs Day 7 [1]: 83.1%

Asp—Arg—Val—Tyr—Ile—His—Pro—Phe (DRVYIHPF) [AII, reference compound]
Affinity for AT2 relative to AT1 (AT2 receptor; higher affinity for AT2 than AT1, Speth and Kim 1990): 100 times
Effect on proliferation of human smooth muscle cells (in words) [1]: increased the proliferation
% Control Proliferation Day 1 vs Day 4 [1]: 121.4%
% Control Proliferation Day 1 vs Day 7 [1]: 154.5%

Asp—Arg—Val—Tyr—Ile—Xaa—Pro—Phe (DRVYI[Phe(4-NH2)]PF) [p-aminophenylalanine6-AII]
Binding characteristics (in words) (AT2 receptor; experimental models of Catalioto 1994, Bryson 1992): comparable to AT2 antagonists

DRKYIHP [Peptide 5GD]
Effect on proliferation of human smooth muscle cells (in words) [1]: inhibited smooth muscle cell proliferation
% Control Proliferation Day 1 vs Day 4 [1]: 86.6%
% Control Proliferation Day 1 vs Day 7 [1]: 80.1%

DRP(OH)AIHP [Peptide 8GD]
Effect on proliferation of human smooth muscle cells (in words) [1]: inhibited smooth muscle cell proliferation
% Control Proliferation Day 1 vs Day 4 [1]: 72.6%
% Control Proliferation Day 1 vs Day 7 [1]: 66.4%

DRVAIHP [Peptide 1GD]
Effect on proliferation of human smooth muscle cells (in words) [1]: inhibited smooth muscle cell proliferation
% Control Proliferation Day 1 vs Day 4 [1]: 55.4%
% Control Proliferation Day 1 vs Day 7 [1]: 54.2%

DRVYIH [A(1-6)]
Effect on proliferation of human smooth muscle cells (in words) [1]: inhibited smooth muscle cell proliferation
% Control Proliferation Day 1 vs Day 4 [1]: 76.5%
% Control Proliferation Day 1 vs Day 7 [1]: 61.1%

His—Pro—Phe (HPF) [AII(6-8)]
Effectiveness (in words) [3]: not to be effective

Ile—His—Pro—Phe (IHPF) [A(5-8)]
Effect on proliferation of human smooth muscle cells (in words) [1]: inhibited smooth muscle cell proliferation
% Control Proliferation Day 1 vs Day 4 [1]: 63.1%
% Control Proliferation Day 1 vs Day 7 [1]: 55.0%

Tyr—Ile—His—Pro—Phe (YIHPF) [AII(4-8)]
Effectiveness (in words) [3]: not to be effective; also recorded: ineffective

Val—Tyr—Ile—His—Pro (VYIHP) [A(3-7)]
Effect on proliferation of human smooth muscle cells (in words) [1]: inhibited smooth muscle cell proliferation
% Control Proliferation Day 1 vs Day 4 [1]: 80.5%
% Control Proliferation Day 1 vs Day 7 [1]: 70.0%

Val—Tyr—Ile—His—Pro—Phe (VYIHPF) [A(3-8)]
Effect on proliferation of human smooth muscle cells (in words) [1]: inhibited smooth muscle cell proliferation
% Control Proliferation Day 1 vs Day 4 [1]: 74.7%
% Control Proliferation Day 1 vs Day 7 [1]: 61.7%
